Consider 5 molecules from patent US10457946B2, “Methods for overcoming glucocorticoid resistance and for determining glucocorticoid resistance potential in cancer” (St. Jude Children's Research Hospital, Inc., priority 2013, dated 2019).

The subject of series [1] is Nalm6 leukemia cell line. The series is described as follows: MTT drug sensitivity assay in Nalm6 cells with enforced CASP1 expression or empty vector. The format is cell-based, human. Conditions: for increase in resistance (LC50) by CASP1 over-expression: Nalm6 cells transduced with CASP1, after activation of NLRP3 inflammasome (LPS/ATP), average. Here is the method:
Leukemia cells were isolated at diagnosis from patient bone marrow aspirates. If the leukemia cell percentage from diagnostic bone marrow samples was less than ninety percent, magnetic activated cell sorting (Miltenyl Biotec, Auburn, Calif.) was performed to further enrich for leukemia cells. If red cell contamination was greater than thirty percent, red blood cell lysis was performed. Cells were centrifuged at 300 g for five minutes and resuspended at a concentration of two million cells per milliliter. Eighty microliters of this leukemia cell suspension was then plated into each experimental well of round-bottom 96-well plates. Twenty microliters of decreasing concentrations of prednisolone were added and the plates were incubated for ninety-six hours in a humidified incubator containing 5% CO2 at 37° C. For the final six hours, ten microliters of 5 milligram per milliliter MTT (3-4,5-dimethylthiazol-2,5-diphenyl tetrazolium bromide) was added to each experimental well. Drug resistance assays in cell lines were performed using between 0.25 and 2.5 million cells per milliliter. Assays were developed and performed as for patient sample assays. LC50 values were determined as previously described (Holleman et al., 2004).
Full-length CASP1 (Origene, Rockville, Md., catalog # RC218364; GenBank Accession No. NM_033292) was subcloned into a lentiviral backbone (System Biosciences, Mountain View, Calif., catalog number CD527A-1), in frame with a T2A linked puromycin resistance gene. Lentivirus was produced in 293T cells and the Nalm6 leukemia cell line was transduced. 72 hours post transduction, cells were selected with 2.5 micrograms per milliliter puromycin. Where indicated cells were treated with 10 μg/mL LPS (InvivoGen, San Diego, Calif.) followed 2 hours later by 5 mM ATP (Roche, Pleasanton, Calif.).
A general note: Tetrazolium dyes change colour on reduction, which living cells bring about.

Series [2] has as its target T1, Recombinant human CASP1 (Homo sapiens, UniProt P29466).
T1 construct: purchased Enzo Life Sciences BML-AK701-0001
T1 sequence (P29466 120-297): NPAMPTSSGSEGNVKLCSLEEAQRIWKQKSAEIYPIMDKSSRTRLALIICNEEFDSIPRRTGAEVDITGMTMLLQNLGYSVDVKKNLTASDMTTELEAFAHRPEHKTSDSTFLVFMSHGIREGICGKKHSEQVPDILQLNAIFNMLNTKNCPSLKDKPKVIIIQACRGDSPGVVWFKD
T1 sequence (P29466 317-404): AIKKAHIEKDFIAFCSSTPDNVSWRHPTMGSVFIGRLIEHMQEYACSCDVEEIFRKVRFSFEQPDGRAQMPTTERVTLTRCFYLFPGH
Nature of the series: CASP1 enzymatic assay: cleavage of glucocorticoid receptor (NR3C1) by recombinant CASP1. In kind it is biochemical. To be noted: for CASP1-induced cleavage of the glucocorticoid receptor (NR3C1): recombinant human CASP1, 30° C., inhibitor 10 μM unless otherwise indicated, FIG. 3A, 3C. Here is the method: Recombinant human CASP1 (100-200 U, where U=1 pmol/min at 30° C., 200 μM YVAD-pNA (SEQ ID NO: 21)) from a CASP1 assay kit for drug discovery (Enzo Life Sciences, Farmingdale, N.Y., catalog number BML-AK701-0001) was incubated at 30° C. with wild-type or mutated GR in the presence (10 μM unless otherwise indicated) or absence of inhibitors, (Ac-YVAD-CHO (SEQ ID NO: 18), Enzo Life Sciences, Farmingdale, N.Y., catalog number BML-P403-9090), VX765, VRT-043198).
Cells were pelleted by centrifugation, washed once with PBS and lysed with RIPA buffer or caspase-1 assay buffer (Enzo Life Sciences, Farmingdale, N.Y. catalog number KI-111), equal amounts of proteins (1-20 μg) separated by 4-12% Novex Bis-Tris gels (Life Technologies, Grand Island, N.Y.), and then transblotted to PVDF membranes (Life Technologies, Grand Island, N.Y.). Anti-GR (1:1000-1:10,000, BD catalog number 611227), anti-DDK […] (1:1000, Origene catalog number TA50011), anti-Bim (1:1000, Cell Signalling catalog number 2819) or anti-Tubulin (1:1000, Santa Cruz, sc-8035) were used as primary antibodies followed by appropriate secondary HRP-conjugated IgG (1:1000, Dako) and immunocomplexes were visualized by chemiluminescence.

The test system of series [3] is NALM-6 cells overexpressing CASP1. The format is cell-based, human. To be noted: CASP1 overexpressing ALL (NALM-6) cells transduced with the named shRNA, +LPS/ATP, MTT, mean±S.E.M., n=4; read-out: LC50 (glucocorticoid sensitivity, prednisolone).
Method: The sensitivity (LC50) of shCASP1 and shNT cells to prednisolone was determined by MTT assays (Panel B). […] Error bars represent S.E.M; n=4 replicate experiments.
NALM-6 cells overexpressing CASP1 co-transfected with either non-targeting scrambled hairpin (shNT; SEQ ID NO: 13) or shRNA hairpins targeting CASP1 (shCASP1; SEQ ID NO: 14) were stably transduced with lentiviral vectors (Addgene plasmid 25890; Sigma-Aldrich, St. Louis, Mo.) containing a wild-type glucocorticoid receptor (SEQ ID NO: 16) or a glucocorticoid receptor in which both CASP1 cleavage sites had been eliminated (double mutagenized GR, DM-GR (SEQ ID NO: 17)).
Cells were centrifuged at 300 g for five minutes and resuspended at a concentration of two million cells per milliliter. Eighty microliters of this leukemia cell suspension was then plated into each experimental well of round-bottom 96-well plates. Twenty microliters of decreasing concentrations of prednisolone were added and the plates were incubated for ninety-six hours in a humidified incubator containing 5% CO2 at 37° C. For the final six hours, ten microliters of 5 milligram per milliliter MTT (3-4,5-dimethylthiazol-2,5-diphenyl tetrazolium bromide) was added to each experimental well. […] LC50 values were determined as previously described (Holleman et al., 2004). […]

With `C[C@@H]1C[C@H]2[C@@H]3CCC4=CC(=O)C=C[C@]4(C)[C@@]3(F)[C@@H](O)C[C@]2(C)[C@@]1(O)C(=O)CO` [dexamethasone], the “increase in resistance (LC50) by CASP1 over-expression” value in series [1] is recorded as 5.3 fold.
`CC(C)(C)[C@@H](NC(=O)c1ccc(N)c(Cl)c1)C(=O)N1CCC[C@H]1C(=O)N[C@H](C=O)CC(=O)O` [VRT043198, (S)-3-((S)-1-((R)-2-(4-amino-3-chlorobenzamido)-3,3-dimethylbutanoyl)pyrrolidine-2-carboxamido)-4-oxobutanoic acid]: in series [2] (FIG. 3C), the “inhibitory activity on CASP1 cleavage of NR3C1 compared with VX-765” value is “higher inhibitory activity”. The “CASP1-induced cleavage of the glucocorticoid receptor (NR3C1)” value in series [2] is recorded as “inhibited”.
For `CCO[C@H]1OC(=O)C[C@@H]1NC(=O)[C@@H]1CCCN1C(=O)[C@H](NC(=O)c1ccc(N)c(Cl)c1)C(C)(C)C` [VX765, (S)-1-((R)-2-(4-amino-3-chlorobenzamido)-3,3-dimethylbutanoyl)-N-((2S,3S)-2-ethoxy-5-oxotetrahydro-furan-3-yl)pyrrolidine-2-carboxamide], the “CASP1-induced cleavage of the glucocorticoid receptor (NR3C1)” value in series [2] is “inhibited”.
Turning to “shNT: non-targeting scrambled shRNA hairpin, control (CCGGCAACAAGATGAAGAGCACCAACTCGAGTTGGTGCTCTTCATCTTGTTGTTTTT)”, the CC50 in series [3] came to 570 ± 423 µM.
Regarding `C[C@]12C=CC(=O)C=C1CC[C@@H]1[C@@H]2[C@@H](O)C[C@@]2(C)[C@H]1CC[C@]2(O)C(=O)CO` [prednisolone], the “increase in resistance (LC50) by CASP1 over-expression” value in series [1] is on record as 16.9 fold. Further, the “difference in sensitivity on activation of the NLRP3 inflammasome and CASP1” value in series [1] (Nalm6 cells transduced with empty vector control virus) is recorded as “no difference”.
